The source of these data is patent US4479951A, “1.4;3.6-Dianhydrohexitol nitrates substituted by purine bases, processes for their preparation and pharmaceutical compositions” (Dr. Willmar Schwabe GmbH & Co., priority 1980, dated 1984).

The subject of data set [1] is isolated rat aorta preparations. Description: spasmolytic effectiveness, noradrenaline-induced contractions. To be noted: read-out: ED50 noradrenaline spasm.
Data set [2] shares this test system. In words: spasmolytic effectiveness, potassium chloride-induced contractions. To be noted: read-out: ED50 potassium chloride spasm.
The test system of the next data set is guinea pigs. Description: blood pressure-lowering effectiveness on narcotised guinea pigs, intravenous. The data set is classed as in vivo, guinea pig. To be noted: for blood pressure previously: before administration.
In the next data set the test system is female NMRI-albino mice. Description: acute toxicity, intravenous. The format is in vivo. To be noted: within 24 hours.
The nature of data set [3]: acute toxicity, intravenous. The data set is classed as in vivo. To be noted: mouse, in vivo, iv; within 24 hours; read-out: Evaluated LD50-range.

SMILES strings stand for the structures.

For the compound `O=[N+]([O-])O[C@H]1CO[C@H]2[C@@H]1OC[C@@H]2n1cnc2c(NCc3ccccc3)ncnc21` [Example 13b, 5-(6-Benzylaminopurin-9-yl)-5-desoxy-1.4;3.6-dianhydro-L-iditol 2-nitrate], the IC50 in data set [1] stood at 16.8 nM; in data set [2] it was 2400 nM.
For `Cn1c(=O)c2c(ncn2[C@H]2CO[C@H]3[C@@H]2OC[C@@H]3O[N+](=O)[O-])n(C)c1=O` [Example 12b, 5-(7-Theophyllinyl)-5-desoxy-1.4;3.6-dianhydro-L-iditol 2-nitrate] the same measures were 3200 nM and 4200 nM.
For `O=[N+]([O-])O[C@H]1CO[C@H]2[C@@H]1OC[C@@H]2n1cnc2c(N3CCOCC3)ncnc21` [Example 8b, 5-(6-Morpholinopurin-9-yl)-5-desoxy-1.4;3.6-dianhydro-L-iditol 2-nitrate] the same measures were 290 nM and 3000 nM.
Usually LD50 stands for the dose expected to kill half of the subjects tested. For `CN(C)c1ncnc2c1ncn2[C@H]1CO[C@H]2[C@@H]1OC[C@@H]2O[N+](=O)[O-]` [Example 4b, 5-(6-Dimethylaminopurin-9yl)-5-desoxy-1.4;3.6-dianhydro-L-iditol 2-nitrate], the blood pressure afterwards in the data set with guinea pigs (0.25 mg/kg i.v.) is reported as 63.25 ± 4.23 mm. Hg; in the data set on guinea pigs (1.00 mg/kg i.v.) it was 59.00 ± 1.47 mm. Hg; with guinea pigs (2.50 mg/kg i.v.), 43.50 ± 2.50 mm. Hg. Moreover, the “blood pressure Δ” value is on record as -10.50 mm. Hg in the data set on guinea pigs (0.25 mg/kg i.v.), -15.00 mm. Hg in the data set with guinea pigs (1.00 mg/kg i.v.) and -28.50 mm. Hg in the data set on guinea pigs (2.50 mg/kg i.v.). Moreover, the blood pressure previously came out at 73.75 ± 2.14 mm. Hg with guinea pigs (0.25 mg/kg i.v.), 74.00 ± 1.91 mm. Hg with guinea pigs (1.00 mg/kg i.v.) and 72.00 ± 2.45 mm. Hg in the data set on guinea pigs (2.50 mg/kg i.v.). Further, the IC50 in data set [1] came out at 220 nM; in data set [2], 29000 nM. Further, the figures for the Frequency of death with female NMRI-albino mice (50 mg/kg i.v.), with female NMRI-albino mice (100 mg/kg i.v.) and with female NMRI-albino mice (200 mg/kg i.v.) were 0/3, 3/3 and 3/3, respectively. In addition, the LD50 at 24 h in data set [3] was in the range of 50 to 100 mg/kg.
Turning to `CCNc1ncnc2c1ncn2[C@H]1CO[C@H]2[C@@H]1OC[C@@H]2O[N+](=O)[O-]` [Example 5b, 5-(6-Ethylaminopurin-9-yl)-5-desoxy-1.4;3.6-dianhydro-L-iditol 2-nitrate], the blood pressure afterwards with guinea pigs (0.25 mg/kg i.v.) is 71.00 ± 5.04 mm. Hg; with guinea pigs (1.00 mg/kg i.v.) it was 65.75 ± 3.75 mm. Hg; in the data set on guinea pigs (2.50 mg/kg i.v.), 51.00 ± 3.13 mm. Hg. The “blood pressure Δ” value in the data set with guinea pigs (0.25 mg/kg i.v.) is recorded as -5.50 mm. Hg; in the data set with guinea pigs (1.00 mg/kg i.v.) it was -12.75 mm. Hg; in the data set on guinea pigs (2.50 mg/kg i.v.), -25.25 mm. Hg. Further, the blood pressure previously with guinea pigs (0.25 mg/kg i.v.) came to 76.50 ± 2.66 mm. Hg; in the data set on guinea pigs (1.00 mg/kg i.v.), 78.50 ± 1.70 mm. Hg; in the data set with guinea pigs (2.50 mg/kg i.v.), 76.25 ± 2.59 mm. Hg. The IC50 amounted to 380 nM in data set [1] and 13000 nM in data set [2]. The Frequency of death with female NMRI-albino mice (50 mg/kg i.v.) is reported as 1/11; in the data set on female NMRI-albino mice (100 mg/kg i.v.), 3/6; in the data set with female NMRI-albino mice (200 mg/kg i.v.), 3/3. Moreover, the LD50 at 24 h in data set [3] lay within 50 to 100 mg/kg.
For `CC(C)(C)C(=O)Nc1ncnc2c1ncn2[C@H]1CO[C@H]2[C@@H]1OC[C@@H]2O[N+](=O)[O-]` [Example 10, 5-[9-(6-N-Pivaloyl)-adenyl]-5-desoxy-1.4;3.6-dianhydro-L-iditol 2-nitrate], the IC50 in data set [1] stood at 302 nM; in data set [2], 6500 nM.
Take `O=[N+]([O-])O[C@H]1CO[C@H]2[C@@H]1OC[C@@H]2n1cnc2c(N3CCCCC3)ncnc21` [Example 7b, 5-(6-Piperidinopurin-9-yl)-5-desoxy-1.4;3.6-dianhydro-L-iditol 2-nitrate]: the IC50 in data set [1] worked out at 240 nM; in data set [2], 2900 nM.
For the compound `CN1CCN(c2ncnc3c2ncn3[C@H]2CO[C@H]3[C@@H]2OC[C@@H]3O[N+](=O)[O-])CC1` [Example 9b, 5-[6-(4-Methylpiperazino)-purin-9-yl]-5-desoxy-1.4;3.6-dianhydro-L-iditol 2-nitrate], the blood pressure afterwards in the data set with guinea pigs (0.25 mg/kg i.v.) was determined as 70.25 ± 8.39 mm. Hg; in the data set with guinea pigs (1.00 mg/kg i.v.) it was 69.75 ± 7.44 mm. Hg; with guinea pigs (2.50 mg/kg i.v.), 59.75 ± 4.82 mm. Hg. Also, the “blood pressure Δ” value is -2.25 mm. Hg with guinea pigs (0.25 mg/kg i.v.), -3.50 mm. Hg with guinea pigs (1.00 mg/kg i.v.) and -12.75 mm. Hg with guinea pigs (2.50 mg/kg i.v.). For the same compound, the blood pressure previously with guinea pigs (0.25 mg/kg i.v.) came out at 72.50 ± 6.20 mm. Hg; in the data set with guinea pigs (1.00 mg/kg i.v.) it was 73.25 ± 6.24 mm. Hg; in the data set on guinea pigs (2.50 mg/kg i.v.) it was 72.50 ± 5.24 mm. Hg. Further, the results for the IC50 in data set [1] and in data set [2] were 2650 nM and 25000 nM, respectively. Moreover, the Frequency of death was 4/6 in the data set with female NMRI-albino mice (100 mg/kg i.v.) and 3/3 in the data set with female NMRI-albino mice (200 mg/kg i.v.). Moreover, the LD50 at 24 h in data set [3] was in the range of 50 to 100 mg/kg.
Consider `CNc1ncnc2c1ncn2[C@H]1CO[C@H]2[C@@H]1OC[C@@H]2O[N+](=O)[O-]` [Example 3c, 5-(6-Methylaminopurin-9-yl)-5-desoxy-1.4;3.6-dianhydro-L-iditol 2-nitrate], for which the blood pressure afterwards was determined as 79.25 ± 2.56 mm. Hg with guinea pigs (0.25 mg/kg i.v.), 71.50 ± 3.97 mm. Hg in the data set on guinea pigs (1.00 mg/kg i.v.) and 61.50 ± 3.23 mm. Hg in the data set with guinea pigs (2.50 mg/kg i.v.). Further, the “blood pressure Δ” value is -0.25 mm. Hg in the data set on guinea pigs (0.25 mg/kg i.v.), -8.00 mm. Hg in the data set on guinea pigs (1.00 mg/kg i.v.) and -15.50 mm. Hg in the data set on guinea pigs (2.50 mg/kg i.v.). Also, the blood pressure previously in the data set on guinea pigs (0.25 mg/kg i.v.) is listed as 79.50 ± 2.50 mm. Hg; with guinea pigs (1.00 mg/kg i.v.), 79.50 ± 2.66 mm. Hg; with guinea pigs (2.50 mg/kg i.v.), 77.00 ± 2.80 mm. Hg. The IC50 worked out at 480 nM in data set [1] and 4600 nM in data set [2]. Moreover, the values for the Frequency of death in the data set with female NMRI-albino mice (100 mg/kg i.v.) and in the data set on female NMRI-albino mice (200 mg/kg i.v.) were 0/6 and 3/3, respectively. Further, the LD50 at 24 h in data set [3] was 100 to 200 mg/kg.
As to `O=[N+]([O-])O[C@@H]1CO[C@H]2[C@@H]1OC[C@@H]2O` [ISMN, 1.4;3.6-dianhydro-D-glucitol 2-nitrate, reference compound], the blood pressure afterwards in the data set on guinea pigs (0.25 mg/kg i.v.) is listed as 53.90 ± 3.10 mm. Hg; in the data set with guinea pigs (1.00 mg/kg i.v.), 48.40 ± 3.20 mm. Hg; with guinea pigs (2.50 mg/kg i.v.), 41.40 ± 3.90 mm. Hg. The blood pressure previously with guinea pigs (0.25 mg/kg i.v.) is 57.60 ± 3.10 mm. Hg; in the data set on guinea pigs (1.00 mg/kg i.v.), 54.70 ± 3.80 mm. Hg; with guinea pigs (2.50 mg/kg i.v.), 52.30 ± 4.80 mm. Hg.
Consider `O=[N+]([O-])O[C@H]1CO[C@H]2[C@@H]1OC[C@@H]2n1cnc2c(N3CCCC3)ncnc21` [Example 6b, 5-(6-Pyrrolidinopurin-9-yl)-5-desoxy-1.4;3.6-dianhydro-L-iditol 2-nitrate], for which the blood pressure afterwards in the data set on guinea pigs (0.25 mg/kg i.v.) turned out to be 51.50 ± 4.94 mm. Hg; with guinea pigs (1.00 mg/kg i.v.), 44.75 ± 2.84 mm. Hg; in the data set with guinea pigs (2.50 mg/kg i.v.) it was 37.25 ± 1.11 mm. Hg. For the same compound, the “blood pressure Δ” value in the data set with guinea pigs (0.25 mg/kg i.v.) is reported as -13.50 mm. Hg; in the data set on guinea pigs (1.00 mg/kg i.v.), -20.75 mm. Hg; in the data set on guinea pigs (2.50 mg/kg i.v.), -24.75 mm. Hg. Further, the blood pressure previously in the data set with guinea pigs (0.25 mg/kg i.v.) came out at 65.00 ± 4.02 mm. Hg; in the data set on guinea pigs (1.00 mg/kg i.v.), 65.50 ± 2.36 mm. Hg; in the data set with guinea pigs (2.50 mg/kg i.v.) it was 62.00 ± 2.04 mm. Hg. The IC50 in data set [1] came to 540 nM; in data set [2], 4070 nM. Moreover, the Frequency of death with female NMRI-albino mice (50 mg/kg i.v.) is 0/3; in the data set on female NMRI-albino mice (100 mg/kg i.v.) it was 3/3; in the data set with female NMRI-albino mice (200 mg/kg i.v.), 3/3. For the same compound, the LD50 at 24 h in data set [3] lay in the range of 50 to 100 mg/kg.
